Assay results reported in the NIST ThermoML archive (doi:10.1016/j.fluid.2016.02.037).
“And” between values parts separate entries of the source, which are not always exact repeats. Identical values can stand only once.

Experiment: Molar enthalpy of transition or fusion
Conditions: Crystal; DSC

Cn1nnnc1SCC1=C(C(=O)[O-])N2C(=O)[C@@H](NC(=O)[C@H](OC=O)c3ccccc3)[C@H]2SC1.[Na+] [cefamandole nafate]
Molar enthalpy of transition or fusion: 4.51 kcal/mol and 3.33 kcal/mol
